Reference: EP4745135A1 (Gluetacs Therapeutics (Shanghai) Co., Ltd., priority 2023, dated 2025)

Experiments:
CK1α = biological target: T1, CK1α (Homo sapiens, UniProt P48729+Q96SW2); assay: Western blot, degradation of substrate protein in hPBMCs; assay type: cell-based; settings: 24 hours treatment, compounds at 50 nM and 500 nM (concentration behind the class not stated)
T1 construct: effects of the compounds of the present disclosure on the expression of target proteins in cells; endogenous in cells; host or cells: human PBMCs (Milecell Biotechnologies)
T1 sequence (P48729 whole entry): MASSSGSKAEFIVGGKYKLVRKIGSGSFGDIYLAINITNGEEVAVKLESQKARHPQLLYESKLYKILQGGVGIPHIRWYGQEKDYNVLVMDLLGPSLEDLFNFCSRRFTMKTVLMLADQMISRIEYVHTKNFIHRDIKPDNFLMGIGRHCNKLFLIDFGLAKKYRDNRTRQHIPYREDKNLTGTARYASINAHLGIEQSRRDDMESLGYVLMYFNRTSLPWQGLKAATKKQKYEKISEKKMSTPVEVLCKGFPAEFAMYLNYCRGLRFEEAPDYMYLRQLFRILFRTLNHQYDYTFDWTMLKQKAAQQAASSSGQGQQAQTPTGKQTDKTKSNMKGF
T1 sequence (Q96SW2 whole entry): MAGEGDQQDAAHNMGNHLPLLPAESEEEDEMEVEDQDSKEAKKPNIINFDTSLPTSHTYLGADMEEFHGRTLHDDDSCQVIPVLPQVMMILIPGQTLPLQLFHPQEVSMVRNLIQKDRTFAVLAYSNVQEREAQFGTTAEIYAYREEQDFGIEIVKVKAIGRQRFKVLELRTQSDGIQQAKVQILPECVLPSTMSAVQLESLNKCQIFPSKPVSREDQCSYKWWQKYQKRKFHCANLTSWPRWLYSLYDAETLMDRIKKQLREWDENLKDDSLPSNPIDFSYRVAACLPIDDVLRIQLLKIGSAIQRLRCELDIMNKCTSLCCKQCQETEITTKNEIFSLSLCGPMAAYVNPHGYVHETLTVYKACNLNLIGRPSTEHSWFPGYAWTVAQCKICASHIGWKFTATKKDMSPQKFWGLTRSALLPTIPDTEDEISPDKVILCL
T1 sequence (Q16531 whole entry partner): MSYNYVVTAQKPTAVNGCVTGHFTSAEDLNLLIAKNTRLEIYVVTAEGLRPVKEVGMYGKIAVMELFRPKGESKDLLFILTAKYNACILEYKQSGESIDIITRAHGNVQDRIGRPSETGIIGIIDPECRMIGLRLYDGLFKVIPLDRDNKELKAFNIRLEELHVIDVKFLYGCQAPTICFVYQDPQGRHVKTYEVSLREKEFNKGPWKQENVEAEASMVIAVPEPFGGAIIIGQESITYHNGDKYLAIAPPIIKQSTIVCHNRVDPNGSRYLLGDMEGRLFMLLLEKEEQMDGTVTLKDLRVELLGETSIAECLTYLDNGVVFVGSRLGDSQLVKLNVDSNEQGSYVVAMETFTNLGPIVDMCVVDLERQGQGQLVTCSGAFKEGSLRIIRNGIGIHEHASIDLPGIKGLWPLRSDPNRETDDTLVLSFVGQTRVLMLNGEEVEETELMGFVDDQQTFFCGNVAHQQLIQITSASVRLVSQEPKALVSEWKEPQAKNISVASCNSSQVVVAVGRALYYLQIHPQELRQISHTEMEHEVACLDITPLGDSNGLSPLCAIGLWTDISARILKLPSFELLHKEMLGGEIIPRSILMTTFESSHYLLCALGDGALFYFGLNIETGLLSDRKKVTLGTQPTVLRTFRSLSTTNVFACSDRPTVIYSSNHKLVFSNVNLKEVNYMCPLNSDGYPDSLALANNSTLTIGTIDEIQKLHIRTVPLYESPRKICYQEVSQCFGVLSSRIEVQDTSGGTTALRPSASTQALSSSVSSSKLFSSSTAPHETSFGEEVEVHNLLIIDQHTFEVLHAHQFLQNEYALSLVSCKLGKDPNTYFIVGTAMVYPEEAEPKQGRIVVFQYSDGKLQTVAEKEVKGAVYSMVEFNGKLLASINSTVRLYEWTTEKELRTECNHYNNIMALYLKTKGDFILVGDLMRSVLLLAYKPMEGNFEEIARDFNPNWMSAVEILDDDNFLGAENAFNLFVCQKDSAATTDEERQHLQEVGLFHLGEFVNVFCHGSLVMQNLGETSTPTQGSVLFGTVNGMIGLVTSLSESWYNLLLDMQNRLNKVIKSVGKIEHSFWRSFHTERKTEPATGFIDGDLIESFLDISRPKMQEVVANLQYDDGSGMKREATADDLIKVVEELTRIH

IKZF1 = biological target: T2, IKZF1 (Homo sapiens, UniProt Q13422+Q96SW2); assay: as above; assay type: cell-based; settings: 24 hours treatment, compounds at 50 nM and 500 nM (concentration behind the class not stated)
T2 construct: effects of the compounds of the present disclosure on the expression of target proteins in cells; endogenous in cells; host or cells: human PBMCs (Milecell Biotechnologies)
T2 sequence (Q13422 whole entry): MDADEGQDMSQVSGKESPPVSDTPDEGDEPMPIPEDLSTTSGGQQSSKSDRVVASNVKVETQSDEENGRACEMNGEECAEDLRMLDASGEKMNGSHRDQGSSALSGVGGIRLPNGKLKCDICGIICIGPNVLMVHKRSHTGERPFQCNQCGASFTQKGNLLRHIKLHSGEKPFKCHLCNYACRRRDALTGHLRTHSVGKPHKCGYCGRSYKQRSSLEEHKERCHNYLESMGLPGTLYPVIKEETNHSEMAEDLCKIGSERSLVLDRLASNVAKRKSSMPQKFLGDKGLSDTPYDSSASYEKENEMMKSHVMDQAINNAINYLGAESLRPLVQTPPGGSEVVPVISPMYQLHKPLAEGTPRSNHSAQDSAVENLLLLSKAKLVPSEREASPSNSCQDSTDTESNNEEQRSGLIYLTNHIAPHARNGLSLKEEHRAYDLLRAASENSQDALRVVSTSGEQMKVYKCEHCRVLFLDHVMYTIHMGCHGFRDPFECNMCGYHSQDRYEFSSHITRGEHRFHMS
T2 sequence (Q96SW2 whole entry): as the sequence (Q96SW2 whole entry) above
T2 sequence (Q16531 whole entry partner): as the sequence (Q16531 whole entry partner) above

IKZF2 = biological target: T3, IKZF2 (Homo sapiens, UniProt Q96SW2+Q9UKS7); assay: as above; assay type: cell-based; settings: 24 hours treatment, compounds at 50 nM and 500 nM (concentration behind the class not stated)
T3 construct: effects of the compounds of the present disclosure on the expression of target proteins in cells; endogenous in cells; host or cells: human PBMCs (Milecell Biotechnologies)
T3 sequence (Q9UKS7 whole entry): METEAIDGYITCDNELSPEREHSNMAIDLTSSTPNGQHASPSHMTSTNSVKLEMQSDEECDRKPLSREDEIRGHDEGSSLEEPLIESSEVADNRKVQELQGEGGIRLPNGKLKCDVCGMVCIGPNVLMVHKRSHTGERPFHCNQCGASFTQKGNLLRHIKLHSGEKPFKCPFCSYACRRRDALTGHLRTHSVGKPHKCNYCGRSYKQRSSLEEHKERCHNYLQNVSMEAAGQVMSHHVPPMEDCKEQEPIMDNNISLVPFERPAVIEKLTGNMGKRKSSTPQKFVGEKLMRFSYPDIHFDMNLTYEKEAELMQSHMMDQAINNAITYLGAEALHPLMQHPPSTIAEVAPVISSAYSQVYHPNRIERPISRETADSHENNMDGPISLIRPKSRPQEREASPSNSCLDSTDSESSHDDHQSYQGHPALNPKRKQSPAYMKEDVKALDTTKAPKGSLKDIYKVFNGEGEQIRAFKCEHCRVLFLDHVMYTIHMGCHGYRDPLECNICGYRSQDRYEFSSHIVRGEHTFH
T3 sequence (Q96SW2 whole entry): as the sequence (Q96SW2 whole entry) above
T3 sequence (Q16531 whole entry partner): as the sequence (Q16531 whole entry partner) above

IKZF3 = biological target: T4, IKZF3 (Homo sapiens, UniProt Q96SW2+Q9UKT9); assay: as above; assay type: cell-based; settings: 24 hours treatment, compounds at 50 nM and 500 nM (concentration behind the class not stated)
T4 construct: effects of the compounds of the present disclosure on the expression of target proteins in cells; endogenous in cells; host or cells: human PBMCs (Milecell Biotechnologies)
T4 sequence (Q9UKT9 whole entry): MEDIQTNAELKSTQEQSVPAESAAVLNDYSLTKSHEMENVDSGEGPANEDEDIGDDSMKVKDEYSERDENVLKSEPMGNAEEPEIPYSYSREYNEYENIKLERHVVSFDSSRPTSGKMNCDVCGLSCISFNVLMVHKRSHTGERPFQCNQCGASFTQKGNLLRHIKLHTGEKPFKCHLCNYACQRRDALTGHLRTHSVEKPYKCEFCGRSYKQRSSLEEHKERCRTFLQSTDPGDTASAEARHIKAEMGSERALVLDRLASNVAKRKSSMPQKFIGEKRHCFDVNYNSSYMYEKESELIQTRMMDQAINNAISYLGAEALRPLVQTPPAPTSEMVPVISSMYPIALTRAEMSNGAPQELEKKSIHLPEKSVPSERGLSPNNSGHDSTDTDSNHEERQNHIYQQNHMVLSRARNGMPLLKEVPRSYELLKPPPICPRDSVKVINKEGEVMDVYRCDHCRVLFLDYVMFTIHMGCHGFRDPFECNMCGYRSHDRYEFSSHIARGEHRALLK
T4 sequence (Q96SW2 whole entry): as the sequence (Q96SW2 whole entry) above
T4 sequence (Q16531 whole entry partner): as the sequence (Q16531 whole entry partner) above

WEE1 = biological target: T5, WEE1 (Homo sapiens, UniProt P30291+Q96SW2); assay: as above; assay type: cell-based; settings: 24 hours treatment, compounds at 50 nM and 500 nM (concentration behind the class not stated)
T5 construct: effects of the compounds of the present disclosure on the expression of target proteins in cells; endogenous in cells; host or cells: human PBMCs (Milecell Biotechnologies)
T5 sequence (P30291 whole entry): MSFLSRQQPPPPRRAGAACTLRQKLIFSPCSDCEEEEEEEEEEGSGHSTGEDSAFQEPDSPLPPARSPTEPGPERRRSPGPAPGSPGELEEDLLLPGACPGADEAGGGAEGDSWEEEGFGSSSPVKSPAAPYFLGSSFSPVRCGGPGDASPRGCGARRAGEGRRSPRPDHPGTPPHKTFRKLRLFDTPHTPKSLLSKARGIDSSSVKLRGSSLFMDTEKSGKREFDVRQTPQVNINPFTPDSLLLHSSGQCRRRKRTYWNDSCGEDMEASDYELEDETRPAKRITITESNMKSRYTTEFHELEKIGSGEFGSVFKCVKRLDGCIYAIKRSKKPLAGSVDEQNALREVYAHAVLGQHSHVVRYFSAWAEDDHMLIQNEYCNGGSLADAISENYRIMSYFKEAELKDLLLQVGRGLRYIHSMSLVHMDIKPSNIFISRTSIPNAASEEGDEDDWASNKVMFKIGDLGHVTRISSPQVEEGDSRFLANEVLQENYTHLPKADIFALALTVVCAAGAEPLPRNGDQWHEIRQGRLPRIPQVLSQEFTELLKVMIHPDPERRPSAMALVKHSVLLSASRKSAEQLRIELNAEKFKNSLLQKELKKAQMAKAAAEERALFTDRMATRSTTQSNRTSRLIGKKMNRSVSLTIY
T5 sequence (Q96SW2 whole entry): as the sequence (Q96SW2 whole entry) above
T5 sequence (Q16531 whole entry partner): as the sequence (Q16531 whole entry partner) above

GSPT1 = assay: as above; assay type: cell-based, Human; settings: 24 hours treatment, compounds at 50 nM and 500 nM (concentration behind the class not stated)
[1] = biological target: T6, human Cereblon WT GST-tagged protein (Homo sapiens, UniProt Q96SW2); assay: CRBN-binding affinity, HTRF (CEREBLON BINDING kit); settings: for inhibition at 0.5 µM: read-out: Inhibition Rate at 0.5 µM (%); for inhibition at 2 µM: read-out: Inhibition Rate at 2 µM (%)
T6 construct: purchased CISBIO 64BDCRBNPEH
T6 sequence (Q96SW2 whole entry): as the sequence (Q96SW2 whole entry) above

SMILES	inhibition at 0.5 µM [1] [%]	inhibition at 2 µM [1] [%]	CK1α substrate protein remaining % (CK1α)	IKZF 1 substrate protein remaining % (IKZF1)	IKZF2 substrate protein remaining % (IKZF2)	IKZF3 substrate protein remaining % (IKZF3)	Wee1 substrate protein remaining % (WEE1)	GSPT1 substrate protein remaining % (GSPT1)
O=C1CCC(N2Cc3cc(CN4CCC(c5ccnc6cc(F)ccc56)CC4)ccc3C2=S)C(=O)N1 (stereo not shown) [GT-09278, 3-(5-((4-(7-fluoroquinolin-4-yl)piperidin-1-yl)methyl)-1-thioxoisoindolin-2-yl)piperidine-2,6-dione]	30 to 40	60 to 80	B (80%< substrate protein remaining %≤ 100%)	A (0% ≤ substrate protein remaining % ≤ 80%)	B (80%< substrate protein remaining %≤ 100%)	A (0% ≤ substrate protein remaining % ≤ 80%)	A (0% ≤ substrate protein remaining % ≤ 80%)	B (80%< substrate protein remaining %≤ 100%)
Cc1nc(N2CCN(Cc3ccc4c(c3)CN(C3CCC(=O)NC3=O)C4=S)CC2)c2c3c(sc2n1)CCCC3 (stereo not shown) [GT-09299, 3-(5-((4-(2-methyl-5,6,7,8-tetrahydrobenzo[4,5]thieno[2,3-d]pyrimidin-4-yl)piperazin-1-yl)methyl)-1-thioxoisoindolin-2-yl)piperidine-2,6-dione]	53 to 60	80 to 100	B (80%< substrate protein remaining %≤ 100%)	B (80%< substrate protein remaining %≤ 100%)	A (0% ≤ substrate protein remaining % ≤ 80%)	A (0% ≤ substrate protein remaining % ≤ 80%)	B (80%< substrate protein remaining %≤ 100%)	B (80%< substrate protein remaining %≤ 100%)
O=C1CCC(N2Cc3cc(CN4CCN(c5ncnc6sc7c(c56)CCCC7)CC4)ccc3C2=S)C(=O)N1 (stereo not shown) [GT-09300, 3-(5-((4-(5,6,7,8-tetrahydrobenzo[4,5]thieno[2,3-d]pyrimidin-4-yl)piperazin-1-yl)methyl)-1-thioxoisoindolin-2-yl)piperidine-2,6-dione]	53 to 60	80 to 100	B (80%< substrate protein remaining %≤ 100%)	A (0% ≤ substrate protein remaining % ≤ 80%)	A (0% ≤ substrate protein remaining % ≤ 80%)	A (0% ≤ substrate protein remaining % ≤ 80%)	B (80%< substrate protein remaining %≤ 100%)	B (80%< substrate protein remaining %≤ 100%)
O=C1CCC(N2Cc3cc(CN4CCN(c5ncnc6sc7c(c56)CCC7)CC4)ccc3C2=S)C(=O)N1 (stereo not shown) [GT-09301, 3-(5-((4-(6,7-dihydro-5H-cyclopenta[4,5]thieno[2,3-d]pyrimidin-4-yl)piperazin-1-yl)methyl)-1-thioxoisoindolin-2-yl)piperidine-2,6-dione]	60 to 80	80 to 100	B (80%< substrate protein remaining %≤ 100%)	A (0% ≤ substrate protein remaining % ≤ 80%)	A (0% ≤ substrate protein remaining % ≤ 80%)	A (0% ≤ substrate protein remaining % ≤ 80%)	B (80%< substrate protein remaining %≤ 100%)	B (80%< substrate protein remaining %≤ 100%)
O=C1CCC(N2Cc3cc(CN4CCC(c5ncnc6scc(-c7ccccc7)c56)CC4)ccc3C2=S)C(=O)N1 (stereo not shown) [GT-09307, 3-(5-((4-(5-phenylthieno[2,3-d]pyrimidin-4-yl)piperidin-1-yl)methyl)-1-thioxoisoindolin-2-yl)piperidine-2,6-dione]	60 to 80	80 to 100	A (0% ≤ substrate protein remaining % ≤ 80%)	A (0% ≤ substrate protein remaining % ≤ 80%)	B (80%< substrate protein remaining %≤ 100%)	A (0% ≤ substrate protein remaining % ≤ 80%)	A (0% ≤ substrate protein remaining % ≤ 80%)	A (0% ≤ substrate protein remaining % ≤ 80%)
Cc1nc(C2CCN(Cc3ccc4c(c3)CN(C3CCC(=O)NC3=O)C4=S)CC2)c2ccsc2n1 (stereo not shown) [GT-09309, 3-(5-((4-(2-methylthieno[2,3-d]pyrimidin-4-yl)piperidin-1-yl)methyl)-1-thioxoisoindolin-2-yl)piperidine-2,6-dione]	60 to 80	80 to 100	B (80%< substrate protein remaining %≤ 100%)	B (80%< substrate protein remaining %≤ 100%)	B (80%< substrate protein remaining %≤ 100%)	B (80%< substrate protein remaining %≤ 100%)	B (80%< substrate protein remaining %≤ 100%)	A (0% ≤ substrate protein remaining % ≤ 80%)
Cc1nc(C2CCN(Cc3ccc4c(c3)CN(C3CCC(=O)NC3=O)C4=S)CC2)c2c3c(sc2n1)CCCC3 (stereo not shown) [GT-09310, 3-(5-((4-(2-methyl-5,6,7,8-tetrahydrobenzo[4,5]thieno[2,3-d]pyrimidin-4-yl)piperidin-1-yl)methyl)-1-thioxoisoindolin-2-yl)piperidine-2,6-dione]	53 to 60	80 to 100	B (80%< substrate protein remaining %≤ 100%)	B (80%< substrate protein remaining %≤ 100%)	B (80%< substrate protein remaining %≤ 100%)	A (0% ≤ substrate protein remaining % ≤ 80%)	B (80%< substrate protein remaining %≤ 100%)	A (0% ≤ substrate protein remaining % ≤ 80%)

More lines, main results first:

inhibition at 0.5 µM [1] [%]	inhibition at 2 µM [1] [%]	SMILES	CK1α substrate protein remaining % (CK1α)	IKZF 1 substrate protein remaining % (IKZF1)	IKZF2 substrate protein remaining % (IKZF2)	IKZF3 substrate protein remaining % (IKZF3)	Wee1 substrate protein remaining % (WEE1)	GSPT1 substrate protein remaining % (GSPT1)
60 to 80	80 to 100	O=C1CCC(N2Cc3cc(CN4CCC(c5ncnc6sc7c(c56)CCC7)CC4)ccc3C2=S)C(=O)N1 (stereo not shown) [GT-09311, 3-(5-((4-(6,7-dihydro-5H-cyclopenta[4,5]thieno[2,3-d]pyrimidin-4-yl)piperidin-1-yl)methyl)-1-thioxoisoindolin-2-yl)piperidine-2,6-dione]	B (80%< substrate protein remaining %≤ 100%)	A (0% ≤ substrate protein remaining % ≤ 80%)	B (80%< substrate protein remaining %≤ 100%)	A (0% ≤ substrate protein remaining % ≤ 80%)	A (0% ≤ substrate protein remaining % ≤ 80%)	A (0% ≤ substrate protein remaining % ≤ 80%)
60 to 80	80 to 100	Cc1nc(C2CCN(Cc3ccc4c(c3)CN(C3CCC(=O)NC3=O)C4=S)CC2)c2c3c(sc2n1)CCC3 (stereo not shown) [GT-09312, 3-(5-((4-(2-methyl-6,7-dihydro-5H-cyclopenta[4,5]thieno[2,3-d]pyrimidin-4-yl)piperidin-1-yl)methyl)-1-thioxoisoindolin-2-yl)piperidine-2,6-dione]	B (80%< substrate protein remaining %≤ 100%)	B (80%< substrate protein remaining %≤ 100%)	B (80%< substrate protein remaining %≤ 100%)	A (0% ≤ substrate protein remaining % ≤ 80%)	B (80%< substrate protein remaining %≤ 100%)	A (0% ≤ substrate protein remaining % ≤ 80%)
60 to 80	80 to 100	O=C1CCC(N2Cc3cc(CN4CCC(c5ncc6ccsc6n5)CC4)ccc3C2=S)C(=O)N1 (stereo not shown) [GT-09313, 3-(5-((4-(thieno[2,3-d]pyrimidin-2-yl)piperidin-1-yl)methyl)-1-thioxoisoindolin-2-yl)piperidine-2,6-dione]	B (80%< substrate protein remaining %≤ 100%)	A (0% ≤ substrate protein remaining % ≤ 80%)	B (80%< substrate protein remaining %≤ 100%)	B (80%< substrate protein remaining %≤ 100%)	B (80%< substrate protein remaining %≤ 100%)	A (0% ≤ substrate protein remaining % ≤ 80%)
60 to 80	80 to 100	Cc1csc2ncnc(C3=CCN(Cc4ccc5c(c4)CN(C4CCC(=O)NC4=O)C5=S)CC3)c12 (stereo not shown) [GT-09315, 3-(5-((4-(5-methylthieno[2,3-d]pyrimidin-4-yl)-3,6-dihydropyridin-1(2H)-yl)methyl)-1-thioxoisoindolin-2-yl)piperidine-2,6-dione]	B (80%< substrate protein remaining %≤ 100%)	A (0% ≤ substrate protein remaining % ≤ 80%)	B (80%< substrate protein remaining %≤ 100%)	A (0% ≤ substrate protein remaining % ≤ 80%)	B (80%< substrate protein remaining %≤ 100%)	A (0% ≤ substrate protein remaining % ≤ 80%)
